The source of these data is patent EP2767544A1, “AMORPHOUS SUBSTANCE OF 17 -ACETOXY-11 -(4-N,N-DIMETHYLAMINOPHENYL)-19-NORPREGNA-4,9-DIENE-3,20-DIONE AND PREPARATION METHOD THEREOF” (Shanghai Cdymax Pharmaceuticals Co., Ltd., priority 2011, dated 2013).

Data set [1] can be described thus: Solubility test: apparent solubility in water, supernatant concentration determined by HPLC. The conditions noted are these: for apparent solubility: excess sample in 0.5ml of water, ultrasonic approx. 3 minutes, standing 30 minutes at room temperature, supernatant by HPLC, 30 min.
Experimental: After standing for 30 minutes at room temperature, separate the supernatant by centrifugation. Determine the concentration of sample in supernatant by HPLC (defined as apparent solubility).
The nature of data set [2]: Stability test: heat treatment under reduced pressure, analysed by XRPD, DSC, TGA and IR. The conditions noted are these: dried under reduced pressure at 80 °C for 8 hours, then in vacuum for 15 hours, TGA. It is filed as physicochemical. As to the method: Dry the samples of the amorphous CDB-2914 obtained in the above-mentioned examples under reduced pressure at 80 °C for 8 hours, and then dry in vacuum for 15 hours.

The nature of data set [3]: Hygroscopicity test using a microbalance. Format: physicochemical. Conditions: 25 °C, relative humidity of 5% to 95%, Figure 2. As to the method:
Evaluate hygroscopicity of the amorphous substance using a microbalance (MBA300W, WTI Company, USA). Hang the sample placed on the glass rack in an apparatus that preconditioned at 25 °C, and track the changes of sample weight at a relative humidity of 5% to 95%. Measure the weight of sample at each measurement point (relative humidity) at 2 minutes intervals. The final value was the weight unit at a time point that the variability is less than 0.2%.

Regarding `CC(=O)O[C@]1(C(C)=O)CC[C@H]2[C@@H]3CCC4=CC(=O)CCC4=C3[C@@H](c3ccc(N(C)C)cc3)C[C@@]21C` [Known crystal(crystal form A), 17α-acetoxy-11β-(4-N,N-dimethylaminophenyl)-19-norpregna-4,9-diene-3,20-dione, reference compound], the apparent solubility in data set [1] was 125 ng/mL.

Regarding `CC(=O)O[C@]1(C(C)=O)CC[C@H]2[C@@H]3CCC4=CC(=O)CCC4=C3[C@@H](c3ccc(N(C)C)cc3)C[C@@]21C` [amorphous form, 17α-acetoxy-11β-(4-N,N-dimethylaminophenyl)-19-norpregna-4,9-diene-3,20-dione], the “thermal stability (solid form after heat treatment)” value in data set [2] was “remained amorphous”. In data set [1] (apparent solubility in water, amorphous versus crystal form A), the “solubility relative to crystal form A” value is listed as 8 times. Moreover, the apparent solubility in data set [1] was determined as 1000 ng/mL. The hygroscopicity entry in data set [3] is given as “low hygroscopicity”.
